Earlier results in patent publication EP1997479A1, “Stabilized amorphous candesartan cilexetil compositions for oral administration” (Helm AG, priority 2007, dated 2008).

solubility in water: low solubility in water
SMILES: CCOc1nc2cccc(C(=O)OC(C)OC(=O)OC3CCCCC3)c2n1Cc1ccc(-c2ccccc2-c2nnn[nH]2)cc1 (racemic) [Candesartan cilexetil, (±)-1-(Cyclohexyloxycarbonyloxy)ethyl 2-ethoxy-1-[[2'-(1H-tetrazol-5-yl)biphenyl-4-yl]methyl]-1 H-benzimidazole-7-carboxylate]
